Results as given in US4792568A, “Aryl pyrroles as useful antiallergy compounds” (Rorer Pharmaceutical Corporation, priority 1986, dated 1988).

What was measured:
[1] = target: T1, 5-lipoxygenase (Rattus norvegicus, UniProt P12527); experiment: Inhibition of 5-lipoxygenase (5-HETE formation from [14C]-arachidonic acid in rat neutrophils, Calcium Ionophore A23187); type: cell-based; settings: 3 minutes at 30° C.; for IC50: net 5-HETE, read-out: concentration required for inhibition of the 5-lipoxygenase (5-LOX/I50)
T1 construct: A suspension of rat neutrophils in buffer; endogenous in cells; host or cells: rat neutrophils
T1 sequence (P12527 1-673): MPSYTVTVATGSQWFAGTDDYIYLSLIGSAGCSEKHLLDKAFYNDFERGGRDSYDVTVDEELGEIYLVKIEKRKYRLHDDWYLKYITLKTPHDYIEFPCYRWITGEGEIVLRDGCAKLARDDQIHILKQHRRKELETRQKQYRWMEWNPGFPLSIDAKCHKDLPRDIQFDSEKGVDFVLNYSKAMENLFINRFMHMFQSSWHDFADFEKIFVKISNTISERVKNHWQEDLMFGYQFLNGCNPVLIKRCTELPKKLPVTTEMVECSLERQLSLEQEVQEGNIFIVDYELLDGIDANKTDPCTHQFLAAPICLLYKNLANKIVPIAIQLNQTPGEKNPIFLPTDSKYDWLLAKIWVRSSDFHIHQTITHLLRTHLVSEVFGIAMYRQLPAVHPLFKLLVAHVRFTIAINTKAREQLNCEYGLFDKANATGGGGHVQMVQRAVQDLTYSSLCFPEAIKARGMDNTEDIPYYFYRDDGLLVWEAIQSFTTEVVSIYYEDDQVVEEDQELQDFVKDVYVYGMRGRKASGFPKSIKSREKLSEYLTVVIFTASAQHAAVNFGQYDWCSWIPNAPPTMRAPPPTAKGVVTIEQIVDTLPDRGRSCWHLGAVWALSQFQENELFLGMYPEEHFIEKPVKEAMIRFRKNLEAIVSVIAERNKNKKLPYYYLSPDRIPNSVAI
Method: The following protocol describes an assay to detect inhibitors of the lipoxygenase. Such inhibitors are believed to be capable of modulating the biosynthesis of the leukotrienes, a property believed to be useful in treating asthma and inflammatory disease states.
A suspension of rat neutrophils in buffer is incubated for 3 minutes at 30° C. with [^14 C]-arachidonic acid (AA) and Calcium Ionophore A23187. Citric acid (2M) is used to quench the reaction. Following the addition of a trace amount of (^3 H)-5-HETE together with an excess of unlabeled 5-HETE to each tube, the mixture is extracted with chloroform/methanol. The organic layer is washed wth dilute acid and an aliquot is transferred to glass tubes and dried. The residue is dissolved in a small volume of chloroform and an aliquot is spotted on silica gel TLC sheets, which are developed with an ethyl acetate/isooctane/water/acetic acid solvent system. The 5-HETE spots are visualized with iodine, cut out and placed in scintillation vials for counting. After adjusting for the extraction efficiency, the amount (pmole) of [^14 C]-5-HETE in each of the tubes is quantitated. The net pmoles of 5-HETE are obtained by subtracting the pmoles of 5-HETE in the tubes containing buffer alone (blank) from the pmoles of 5-HETE in the tubes containing […]. The ability of the test compounds to modulate the activity of this enzyme is determined by a decrease or increase in the net amount of 5-HETE produced.

[2] = test system: leukotriene C4-induced contraction of guinea pig peripheral strips; experiment: SRS-A antagonists (SALTI): inhibition of leukotriene C4-induced contraction of guinea pig peripheral lung strips; type: cell-based; settings: 0.2 nM leukotriene C4, 37° C.; for IC50: Cavia porcellus, read-out: concentration required for 50% inhibition of leukotriene C4-induced contraction (I50)
Method: Peripheral strips of guinea pig lungs are prepared and hung in tissue baths (Metro #ME-5505, 10 ml) according to the published procedure (Pro. Nat'l. Acad. Sci., U.S.A. Volume 77, pp. 4354-4358, 1980). The strips are thoroughly rinsed in Assay Buffer and then connected with surgical silk thread to the support rods from the tissue baths. The rods are adjusted in the baths and the strips connected to the pressure transducers (Grass FT 103 or Gould UC-3--. The tissue baths are aerated with 95% oxygen-5% carbon dioxide and maintained at 37° C. The Assay Buffer has been made as follows:
For each liter of buffer the following are added to approximately 800 ml of water distilled in glass: 6.87 g NaCl, 0.4 g KCl, […] NaHCO3, 0.14 g NaH2 PO4 H2 O, 0.21 g MgSO4 7H2 O, and 2.0 g D-glucose. Tehn a solution of 0.368 g CaCl2 2H2 O in 100 ml glass-distilled water is slowly added to the buffer. Sufficient water is added to adjust the volume to one liter, and the solution is aerated with 95% oxygen--5% carbon dioxide. Usually 10 liters of buffer are used for an experiment with 4 tissues.
After the tissues have been repeatedly washed and allowed to equilibrate in the tissue bath, they are challenged with 1 μM histamine. After maximum contractions have been obtained, the tissues are washed, and allowed to relax back to baseline tension. This histamine challenge procedure is repeated at least 1 to 2 more times ot obtain a repeatable control response. The average response to 1 μM histamine for each tissue is used to normalize all other challenges.
Responses of each tissue to a predetermined concentration of leukotriene are then obtained. Usually test compounds are examined initially at 30 μM on resting tension of the tissues without any added agonist or antagonist to determine if the compound has any possible intrinsic activity. The tissues are washed, and the test compound is added again. Leukotriene is added after the desired pre-incubation time. The intrinsic activity of the compounds and their effect on leukotriene-induced contractions are then recorded.
The concentration required for 50% inhibition of 0.2 nM leukotriene C4 -induced contraction of guinea pig peripheral strips for the compounds of the Examples 1 to 6 is as follows: […]

| Compound | relative activity at 10 μM (5-lipoxygenase inhibition) [1] | IC50 [2] [µM] | IC50 [1] [µM] | concentration required for 50% inhibition of leukotriene C4-induced contraction (I50) [2] |
| --- | --- | --- | --- | --- |
| O=Cc1cccn1-c1cccc(Oc2ccccc2)c1 [Example 1, 1-(3-Phenoxyphenyl)-pyrrole-2-aldehyde] | medium | 20 | – | – |
| O=Cc1ccn(-c2cccc(Oc3ccccc3)c2)c1 [Example 2, 1-(3-Phenoxyphenyl)-pyrrole-3-aldehyde] | medium | 18 | – | – |
| CCCCCC(O)c1cccn1-c1cccc(Oc2ccccc2)c1 (stereo not shown) [Example 3, 2-(1-Hydroxyhexyl)-1-(3-phenoxyphenyl)pyrrole] | – | – | 7 | Inactive |
| CCCCCC(O)c1ccn(-c2cccc(Oc3ccccc3)c2)c1 (stereo not shown) [Example 4, 3-(1-Hydroxyhexyl)-1-(3-phenoxyphenyl)pyrrole] | – | – | 4 | – |
| CCCCCC(O)c1cccn1-c1ccccc1 (stereo not shown) [Example 5, 2-(1-Hydroxyhexyl)-1-phenylpyrrole] | – | – | 20 | Inactive |
| CCCCCC(O)c1ccn(-c2ccccc2)c1 (stereo not shown) [Example 6, 3-(1-Hydroxyhexyl)-1-phenylpyrrole] | medium | – | – | – |
